# How the values were obtained:
# Type in all cases: physicochemical
# [1] = Stability of soft gelatin capsule of compound 1 at 40° C.; details: fill 240 μg/g in medium chain fatty acid triglyceride; for conc. (% of Initial) 40° C. 1 mo: 1 month; for conc. (% of Initial) 40° C. 2 mo: 2 months
# Protocol: Glycerin in an amount shown in Table 3 was added in an appropriate amount of water, stirred and heated. Then, gelatin 100 parts by weight was added thereto to give gelatin solution. Compound 1 was dissolved in medium chain fatty acid triglyceride (USP/NF grade) to give a fill solution containing 240 μg/g of compound 1. The gelatin solution and the fill solution were loaded on capsule forming and filling machine to give capsule containing the fill solution, and dried to give soft gelatin capsule.
# The capsule was put in a sealed container and kept at 40° C. for 2 months. The concentration of compound 1 in the fill solution contained in the capsule was determined after 1 and 2 months storage in the same manner as EXAMPLE 1.
# [2] = Stability of compound 1 in vehicle solution, 55° C. storage, HPLC; details: for Concentration of compound 1 after 55° C. storage, day 10: 55° C. for 10 days; for Concentration of compound 1 after 55° C. storage, day 10 / Concentration of compound 1, day 0: percentage based on the theoretical amount; for Concentration of compound 1, day 0: before storage
# Protocol: Compound 1 was dissolved in a vehicle shown in table 1 below to give 240 μg/g solution (sample). The precise concentration of Compound 1 in the solution was determined by means of HPLC (day 0). Then, the solution was put in a hard grass container and kept at 55° C. for 10 days, and then the precise concentration of the compound 1 in the solution was determined by means of HPLC (day 10).
# The determination of the concentration of the compound in the sample was carried out as follows. About 0.2 g of the sample was mixed with exactly 2 ml of internal standard solution and then with a dissolving agent shown in Table 1 to give 5 mL of sample solution. About 12 mg of the reference standard compound 1 was weighted precisely and added with acetonitrile to give exactly 100 ml solution. Exactly 0.8 ml of the solution was obtained and added with exactly 4 ml of the internal standard solution, and then added with the dissolving agent to give 10 ml of standard solution.
# The fluorescent labeling agent was added to the respective solution, stirred and stood at room temperature. Then, the respective solution in an amount that theoretically gives 3.6 ng of compound 1 was loaded on the column and analyzed under the condition as follows:
# Column: 5 mm×25 cm stainless steel column packed with octadecylsilane treated silica gel for HPLC (5 μm)
# Mobile phase: mixture of acetonitrile HPLC grade: methanol HPLC grade: ammonium acetate (0.05 mol/L)
# [3] = Stability of compound 1 in medium chain fatty acid triglyceride kept with gelatin/glycerin piece at 40° C.; details: 60 μg/g in medium chain fatty acid triglyceride with gelatin piece (gelatin 100, glycerin 35 parts by weight), sealed container, 21 days, on the basis of theoretical amount
# Protocol: One hundred (100) parts by weight of gelatin (Type A, high bloom, SKW Biosystems #195F) and 35 parts by weight of glycerin, a plasticizer, were mixed in water and dried to give gelatin piece whose water content was about 4%. Compound 1 was dissolved in medium chain fatty acid triglyceride (USP/NF grade) to give a liquid mixture comprising 60 μg/g of the compound. 0.5 g of the liquid mixture and 0.5 g of gelatin piece were put together in a sealed container and kept at 40° C. for 21 days. The concentration of compound 1 contained in the liquid mixture was determined in the same manner as Example 1. As a result, the amount of the compound 1 at day 21 was 97.0% on the basis of a theoretical amount (60 μg/g).
# [4] = soft gelatin capsule shell gelatin 100, glycerin 45 parts by weight
# [5] = soft gelatin capsule shell gelatin 100, glycerin 55 parts by weight
# [6] = vehicle glycerin, 240 μg/g solution
# [7] = vehicle isopropyl palmitate, 240 μg/g solution
# [8] = vehicle linolenic acid (comparative), 240 μg/g
# [9] = vehicle oleic acid (comparative), 240 μg/g
# [10] = vehicle polyethylene glycol 400, 240 μg/g solution
# [11] = vehicle propylene glycol ester of fatty acid, 240 μg/g solution
# [12] = vehicle propylene glycol, 240 μg/g solution
smiles,measurement,setting,value
"CCCCC(F)(F)[C@@]1(O)CC[C@H]2[C@@H](CC(=O)[C@@H]2CCCCCCC(=O)O)O1 [Compound 1, 7-[(2R,4aR,5R,7aR)-2-(1,1-difluoropentyl)-2-hydroxy-6-oxooctahydrocyclopenta[b]pyran-5-yl]heptanoic acid]",conc. (% of Initial) 40° C. 1 mo,[1]; [4],100.0%
same,conc. (% of Initial) 40° C. 2 mo,[1]; [4],98.7%
same,conc. (% of Initial) 40° C. 1 mo,[1]; [5],97.7%
same,conc. (% of Initial) 40° C. 2 mo,[1]; [5],94.0%
same,stability of compound 1,"[2]; admixing with a polyol and/or a fatty acid ester other than glyceride, versus comparative vehicles",significantly improved
same,"Concentration of compound 1 after 55° C. storage, day 10",[2]; [6],78.0%
same,"Concentration of compound 1, day 0",[2]; [6],92.0%
same,"Concentration of compound 1 after 55° C. storage, day 10","[2]; vehicle hydrogenated maltose starch syrup (comparative), 240 μg/g",24.4%
same,"Concentration of compound 1 after 55° C. storage, day 10",[2]; [7],99.1%
same,"Concentration of compound 1, day 0",[2]; [7],98.9%
same,"Concentration of compound 1 after 55° C. storage, day 10",[2]; [8],33.1%
same,"Concentration of compound 1, day 0",[2]; [8],74.8%
same,"Concentration of compound 1 after 55° C. storage, day 10",[2]; [9],57.3%
same,"Concentration of compound 1, day 0",[2]; [9],101.7%
same,"Concentration of compound 1 after 55° C. storage, day 10",[2]; [10],90.1%
same,"Concentration of compound 1, day 0",[2]; [10],98.2%
same,"Concentration of compound 1 after 55° C. storage, day 10",[2]; [11],89.0%
same,"Concentration of compound 1, day 0",[2]; [11],99.9%
same,"Concentration of compound 1 after 55° C. storage, day 10",[2]; [12],88.6%
same,"Concentration of compound 1, day 0",[2]; [12],97.8%
same,"Concentration of compound 1 after 55° C. storage, day 10","[2]; vehicle sugar alcohol solution derived from corn starch (comparative), 240 μg/g",26.3%
same,amount of the compound 1 at day 21,[3],97.0%
